The numbers were not newly measured in patent publication US20060243184A1, “Use of waste nitrogen from air separation units for blanketing cargo and ballast tanks” (Chevron U.S.A. Inc., priority 2003, published 2006), which cites them from elsewhere.

For this data set the following is noted: @ 20° C.

With `CCS` [Ethylmercaptan], the “Water Solubility” value is 1.3%.
With `CCCS` [Propylmercaptan], the “Water Solubility” value was “Low”.
Turning to `CS` [Methylmercaptan], the “Water Solubility” value was 2.4%.
